From US10660877B2 (BRISTOL-MYERS SQUIBB COMPANY, priority 2016, dated 2020)

Key:
human TLR7 = human TLR7 (Homo sapiens (Human), UniProt Q9NYK1); experiment: TLR7 inhibition reporter assay (HEK-Blue cells, SEAP reporter, gardiquimod stimulation); assay type: cell-based; settings: HEK-Blue cells overexpressing human TLR7, gardiquimod 7.5 μM
human TLR9 = human TLR9 (Homo sapiens (Human), UniProt Q9NR96); experiment: TLR9 inhibition reporter assay (HEK-Blue cells, SEAP reporter, ODN2006 stimulation); settings: read-out: TLR9 IC50, HEK-Blue cells overexpressing human TLR9, ODN2006 5 nM;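 note: compounds tested over 0.05 nM to 50 µM, 22 h incubation, inhibition taken as SEAP signal drop from agonist plus DMSO wells toward a known inhibitor control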
human TLR9, sequence (Q9NR96 26-1032): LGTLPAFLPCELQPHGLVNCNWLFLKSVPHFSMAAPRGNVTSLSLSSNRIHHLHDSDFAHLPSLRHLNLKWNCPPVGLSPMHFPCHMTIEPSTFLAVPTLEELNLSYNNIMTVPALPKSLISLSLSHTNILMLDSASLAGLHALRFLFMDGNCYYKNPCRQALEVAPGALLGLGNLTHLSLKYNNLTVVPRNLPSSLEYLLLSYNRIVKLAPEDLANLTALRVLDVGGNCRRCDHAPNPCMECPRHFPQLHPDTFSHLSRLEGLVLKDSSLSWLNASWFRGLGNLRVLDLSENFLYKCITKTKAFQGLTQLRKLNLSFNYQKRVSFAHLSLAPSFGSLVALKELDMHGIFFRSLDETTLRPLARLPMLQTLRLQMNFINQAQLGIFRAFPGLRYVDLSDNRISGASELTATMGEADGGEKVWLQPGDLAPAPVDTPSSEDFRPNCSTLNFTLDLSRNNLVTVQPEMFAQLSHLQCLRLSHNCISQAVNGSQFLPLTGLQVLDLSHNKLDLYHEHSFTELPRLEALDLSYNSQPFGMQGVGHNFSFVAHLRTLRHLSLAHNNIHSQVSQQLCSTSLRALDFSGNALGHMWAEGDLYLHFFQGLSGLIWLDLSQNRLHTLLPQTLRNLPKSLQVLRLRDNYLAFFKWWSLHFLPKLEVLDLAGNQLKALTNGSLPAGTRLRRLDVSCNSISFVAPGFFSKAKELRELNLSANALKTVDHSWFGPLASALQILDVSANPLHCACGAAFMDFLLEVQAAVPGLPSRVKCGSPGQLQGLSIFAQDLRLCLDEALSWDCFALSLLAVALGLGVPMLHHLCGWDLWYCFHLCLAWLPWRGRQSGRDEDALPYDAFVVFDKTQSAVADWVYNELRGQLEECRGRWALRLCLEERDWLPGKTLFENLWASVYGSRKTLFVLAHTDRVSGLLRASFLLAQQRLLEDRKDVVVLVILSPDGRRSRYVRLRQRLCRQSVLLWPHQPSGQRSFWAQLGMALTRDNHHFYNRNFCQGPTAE

TLR7 = experiment: In vivo mouse TLR7 PD model (gardiquimod challenge, plasma IL-6); set-up: species or system C57BL/6 mice; settings: oral
Procedure: In Vivo Mouse TLR7 and TLR9 PD Model:
(§1) Adult male C57BL/6 mice were used for the experiments. Mice (7 to 10 per group) were randomized into different treatment groups based on body weight. Mice from the respective treatment groups were administered orally with vehicle or test compound. Thirty min after the oral administration of vehicle or test compound, mice were challenged with intraperitoneal injection of gardiquimod for TLR7 PD model and CpG-ODN for TLR9 PD model. Ninety minutes after gardiquimod injection and 120 minutes after CpG-ODN injection, mice were bled under isoflurane anaesthesia and plasma IL-6 level was estimated by using commercially available ELISA kit (BD Biosciences). At the end of experiment, mean cytokine data was plotted and one way ANOVA with Dunnett's test was performed to calculate the significance of test compound treated group vs. vehicle control group. Percent inhibition of cytokine induction was calculated for test compound treated group vs vehicle control group.

human TLR8 = human TLR8 (Homo sapiens (Human), UniProt Q9NR97); experiment: TLR8 inhibition reporter assay (HEK-Blue cells, SEAP reporter, R848 stimulation); settings: read-out: TLR8 IC50, HEK-Blue cells overexpressing human TLR8, R848 15.9 μM;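 note: compounds tested from 0.05 nM to 50 µM, 22 h at 37 °C, SEAP measured with HEK-Blue Detection, inhibition relative to agonist plus DMSO versus a known inhibitor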
human TLR8, sequence (Q9NR97 27-1041): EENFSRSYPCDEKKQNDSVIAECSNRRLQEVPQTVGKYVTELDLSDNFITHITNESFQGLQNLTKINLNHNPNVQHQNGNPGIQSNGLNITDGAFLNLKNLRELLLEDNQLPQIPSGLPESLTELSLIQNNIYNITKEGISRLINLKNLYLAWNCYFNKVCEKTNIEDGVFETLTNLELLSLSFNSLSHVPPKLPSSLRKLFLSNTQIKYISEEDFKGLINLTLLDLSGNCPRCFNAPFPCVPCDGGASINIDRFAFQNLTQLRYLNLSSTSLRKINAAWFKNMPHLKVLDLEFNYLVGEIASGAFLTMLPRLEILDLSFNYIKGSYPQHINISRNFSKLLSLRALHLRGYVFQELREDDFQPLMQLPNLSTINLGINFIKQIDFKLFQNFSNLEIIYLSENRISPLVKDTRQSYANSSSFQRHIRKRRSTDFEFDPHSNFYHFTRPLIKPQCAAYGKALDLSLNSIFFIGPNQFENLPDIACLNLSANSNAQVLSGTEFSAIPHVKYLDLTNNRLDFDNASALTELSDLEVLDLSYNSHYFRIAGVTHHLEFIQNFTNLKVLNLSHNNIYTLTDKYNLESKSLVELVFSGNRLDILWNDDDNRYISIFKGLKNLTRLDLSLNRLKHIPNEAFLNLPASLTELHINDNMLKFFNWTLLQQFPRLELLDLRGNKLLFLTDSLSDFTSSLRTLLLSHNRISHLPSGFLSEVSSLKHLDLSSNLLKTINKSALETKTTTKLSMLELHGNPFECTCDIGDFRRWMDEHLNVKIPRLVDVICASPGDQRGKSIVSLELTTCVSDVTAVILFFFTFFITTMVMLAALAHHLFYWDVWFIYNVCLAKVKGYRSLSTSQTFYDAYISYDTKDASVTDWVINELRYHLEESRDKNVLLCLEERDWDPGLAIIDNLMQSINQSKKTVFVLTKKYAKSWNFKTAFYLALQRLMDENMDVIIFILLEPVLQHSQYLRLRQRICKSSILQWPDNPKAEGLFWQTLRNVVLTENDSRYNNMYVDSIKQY

MRL/lpr mice = experiment: MRL/lpr model of systemic lupus erythematosus (proteinuria, urinary NGAL, anti-dsDNA Ab titer, lymphadenopathy); assay type: in vivo, mouse; settings: oral once daily
Procedure: MRL/lpr Model of Systemic Lupus Erythematosus (SLE) Male MRL/lpr mice of 12-14 weeks age were screened and randomized based on the titers of anti-dsDNA antibodies and urinary NGAL (Neutrophil Gelatinase Associated Lipocalin). Mice were treated orally, once daily for 8 weeks with vehicle or test compound. The effect of test compound on disease severity was assessed by measuring end points including proteinuria, urinary-NGAL, anti-dsDNA Ab titer, and lymphadenopathy. These end points were assessed before the start of treatment and after 4 and 8 weeks of treatment. At the end of experiment, all mice were euthanized by CO2 asphyxiation and kidney samples were subjected for histology. At the end of experiment, one way ANOVA with Dunnett's test was performed to calculate the significance of test compound treated group vs. vehicle control group. Percent reduction in disease severity was calculated for each parameter, for test compound treated group vs vehicle control group.

TLR9 = experiment: In vivo mouse TLR9 PD model (CpG-ODN challenge, plasma IL-6); set-up: species or system C57BL/6 mice; settings: oral
Procedure: as §1, with “In Vivo Mouse TLR7 and TLR9 PD Model: Adult” for “Adult”

human TLR7, sequence (Q9NYK1 27-1049): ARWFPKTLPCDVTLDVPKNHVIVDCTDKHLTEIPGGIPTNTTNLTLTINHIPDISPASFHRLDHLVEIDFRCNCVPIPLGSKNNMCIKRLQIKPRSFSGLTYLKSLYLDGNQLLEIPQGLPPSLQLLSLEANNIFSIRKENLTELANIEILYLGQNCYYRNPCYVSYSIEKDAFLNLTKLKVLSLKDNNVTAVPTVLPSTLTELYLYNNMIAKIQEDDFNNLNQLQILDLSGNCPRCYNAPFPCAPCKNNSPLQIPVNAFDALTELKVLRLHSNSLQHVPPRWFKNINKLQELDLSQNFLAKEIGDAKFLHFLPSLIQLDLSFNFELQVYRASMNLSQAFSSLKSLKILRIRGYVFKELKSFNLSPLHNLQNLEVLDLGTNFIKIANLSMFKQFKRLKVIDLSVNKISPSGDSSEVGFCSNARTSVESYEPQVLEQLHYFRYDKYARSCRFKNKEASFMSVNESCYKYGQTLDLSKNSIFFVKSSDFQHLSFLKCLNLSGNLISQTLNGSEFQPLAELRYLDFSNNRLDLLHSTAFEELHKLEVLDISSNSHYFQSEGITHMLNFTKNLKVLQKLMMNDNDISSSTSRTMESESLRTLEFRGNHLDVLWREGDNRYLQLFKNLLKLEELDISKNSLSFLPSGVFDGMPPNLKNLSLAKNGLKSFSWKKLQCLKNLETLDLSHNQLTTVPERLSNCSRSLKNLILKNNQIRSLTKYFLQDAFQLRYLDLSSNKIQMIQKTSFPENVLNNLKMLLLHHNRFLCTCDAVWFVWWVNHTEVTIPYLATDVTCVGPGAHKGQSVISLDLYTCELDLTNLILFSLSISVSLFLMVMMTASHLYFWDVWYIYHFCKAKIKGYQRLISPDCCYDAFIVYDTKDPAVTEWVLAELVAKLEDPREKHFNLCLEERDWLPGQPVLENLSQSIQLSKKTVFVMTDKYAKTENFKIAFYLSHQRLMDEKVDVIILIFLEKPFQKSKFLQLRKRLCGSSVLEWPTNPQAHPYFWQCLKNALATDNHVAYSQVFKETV

## CNC(=O)CN1CCC(c2ccc3[nH]c(-c4cc(C)nc(C)c4)c(C(C)C)c3c2)CC1 [Example 309, 2-(4-(2-(2,6-dimethylpyridin-4-yl)-3-isopropyl-1H-indol-5-yl)piperidin-1-yl)-N-methylacetamide]
Human TLR7
  IC50: 2 nM
Human TLR9
  IC50: 789 nM
TLR7; 0.0005 mg/kg
  % inhibition of IL6: 12%
TLR7; 0.005 mg/kg
  % inhibition of IL6: 65%
TLR7; 0.05 mg/kg
  % inhibition of IL6: 89%
TLR7; 0.25 mg/kg
  % inhibition of IL6: 91%
Human TLR8
  IC50: 5.5 nM

## Cc1cc(-c2[nH]c3ccc(C4CCN(CC(=O)N(C)C)CC4)cc3c2C(C)C)cc(C)n1 [Example 308, 2-(4-(2-(2,6-dimethylpyridin-4-yl)-3-isopropyl-1H-indol-5-yl)piperidin-1-yl)-N,N-dimethylacetamide]
Human TLR7
  IC50: 1.5 nM
Human TLR9
  IC50: 359 nM
TLR7; 0.002 mg/kg
  % inhibition of IL6: 30%
TLR7; 0.008 mg/kg
  % inhibition of IL6: 47%
TLR7; 0.032 mg/kg
  % inhibition of IL6: 81%
TLR7; 0.160 mg/kg
  % inhibition of IL6: 98%
Human TLR8
  IC50: 4.3 nM

## Cc1cc(-c2[nH]c3ccc(C4CCNCC4)cc3c2C(C)C)cc(C)n1.Cl [Example 1, 2-(2,6-dimethylpyridin-4-yl)-3-isopropyl-5-(piperidin-4-yl)-1H-indole hydrochloride]
Human TLR7
  IC50: 0.7 nM
MRL/lpr mice; 0.1 mg/kg
  % inhibition Anti-dsDNA antibody titer: 1%
  % inhibition IL-10: 24%
  % inhibition IL-12p40: 12%
  % inhibition Lymphadenopathy: 3%
  % inhibition Proteinuria: 69%
  % inhibition Urinary NGAL: 52%
MRL/lpr mice; 1 mg/kg
  % inhibition Anti-dsDNA antibody titer: 14%
  % inhibition IL-10: 32%
  % inhibition IL-12p40: 26%
  % inhibition Lymphadenopathy: 31%
  % inhibition Proteinuria: 92%
  % inhibition Urinary NGAL: 69%
MRL/lpr mice; 5 mg/kg
  % inhibition Anti-dsDNA antibody titer: 20%
  % inhibition IL-10: 39%
  % inhibition IL-12p40: 30%
  % inhibition Lymphadenopathy: 33%
  % inhibition Proteinuria: 92%
  % inhibition Urinary NGAL: 72%
MRL/lpr mice; 20 mg/kg
  % inhibition Anti-dsDNA antibody titer: 53%
  % inhibition IL-10: 53%
  % inhibition IL-12p40: 35%
  % inhibition Lymphadenopathy: 53%
  % inhibition Proteinuria: 93%
  % inhibition Urinary NGAL: 81%
TLR9; 1 mg/kg
  % inhibition of IL6: 16%
TLR9; 3 mg/kg
  % inhibition of IL6: 29%
TLR9; 10 mg/kg
  % inhibition of IL6: 33%
TLR9; 30 mg/kg
  % inhibition of IL6: 38%
TLR7; 0.03 mg/kg
  % inhibition of IL6: 28%
TLR7; 0.05 mg/kg
  % inhibition of IL6: 66%
TLR7; 0.5 mg/kg
  % inhibition of IL6: 98%
Human TLR8
  IC50: 3.2 nM

## Cc1cc(-c2[nH]c3ccc(C4CCN(C(CF)CF)CC4)cc3c2C(C)C)cc(C)n1 [Example 473, 5-(1-(1,3-difluoropropan-2-yl)piperidin-4-yl)-2-(2,6-dimethylpyridin-4-yl)-3-isopropyl-1H-indole]
Human TLR7
  IC50: 10.1 nM
Human TLR9
  IC50: 835 nM
Human TLR8
  IC50: 21.1 nM

## Cc1cc(-c2[nH]c3ccc(C4CCN(C(=O)CCO)CC4)cc3c2C(C)C)cc(C)n1 [Example 117, 1-(4-(2-(2,6-dimethylpyridin-4-yl)-3-isopropyl-1H-indol-5-yl)piperidin-1-yl)-3-hydroxypropan-1-one]
Human TLR7
  IC50: 6.6 nM
Human TLR9
  IC50: > 50000 nM
Human TLR8
  IC50: 116 nM

## Cc1cc(-c2[nH]c3ccc(C4CCN(CC(=O)N5CCC[C@@H](O)C5)CC4)cc3c2C(C)C)cc(C)n1 [Example 209, (R)-2-(4-(2-(2,6-dimethylpyridin-4-yl)-3-isopropyl-1H-indol-5-yl)piperidin-1-yl)-1-(3-hydroxypiperidin-1-yl)ethan-1-one]
Human TLR7
  IC50: 3.5 nM
Human TLR9
  IC50: 604 nM
Human TLR8
  IC50: 13 nM

## Cc1cc(-c2[nH]c3ccc(C4CCN(C(=O)CN(C(C)C)C(C)C)CC4)cc3c2C(C)C)cc(C)n1 [Example 153, 2-(diisopropylamino)-1-(4-(2-(2,6-dimethylpyridin-4-yl)-3-isopropyl-1H-indol-5-yl)piperidin-1-yl)ethan-1-one]
Human TLR7
  IC50: 9.9 nM
Human TLR9
  IC50: 675 nM
Human TLR8
  IC50: 26 nM
